The record followed here is PubChem BioAssay AID330 (DTP/NCI, 2004).

Several values for one entry are separate records, joined by “and”; a condition that tells them apart may be missing. Equal values may be shown once. Toxic doses and inconclusive results are not listed.

This experiment concerns P388 leukemia ip, CD2F1 mice, survival T/C. Put plainly: NCI In Vivo Anticancer Drug Screen. Data for tumor model P388 Leukemia (intraperitoneal) in CD2F1 (CDF1) mice. Particulars: endpoint: median survival time, higher = longer survival. In short, it runs like this:
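Mice carrying the transplanted tumor received test compound or vehicle. Survival was recorded in each group, and the value is the treated-group measurement divided by that of the vehicle-treated control group.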

Where [1] appears, read: dose: 15.0 mg/kg/injection, schedule: Q01DX005 (ip), vehicle: saline with Tween-80.
Setting [2] is: dose: 60.0 mg/kg/injection, schedule: Q01DX005 (ip), vehicle: saline with Tween-80.
[3] abbreviates: dose: 120.0 mg/kg/injection, schedule: Q01DX005 (ip), vehicle: saline with Tween-80.
[4] abbreviates: dose: 240.0 mg/kg/injection, schedule: Q01DX005 (ip), vehicle: saline with Tween-80.
Setting [5] is: dose: 50.0 mg/kg/injection, schedule: Q01DX009 (ip), vehicle: saline with Tween-80.
The mark [6] stands for this setting: dose: 100.0 mg/kg/injection, schedule: Q01DX009 (ip), vehicle: saline with Tween-80.
Setting [7] is: dose: 50.0 mg/kg/injection, schedule: Q01DX009 (ip), vehicle: Klucel (hydroxypropylcellulose) (HPC).
Where [8] appears, read: dose: 100.0 mg/kg/injection, schedule: Q01DX009 (ip), vehicle: Klucel (hydroxypropylcellulose) (HPC).
Where [9] appears, read: dose: 200.0 mg/kg/injection, schedule: Q01DX009 (ip), vehicle: Klucel (hydroxypropylcellulose) (HPC).
[10] abbreviates: dose: 60.0 mg/kg/injection, schedule: Q01DX005 (ip), vehicle: Klucel (hydroxypropylcellulose) (HPC).
Where [11] appears, read: dose: 50.0 mg/kg/injection, schedule: Q01DX009 (ip), vehicle: saline.
[12] abbreviates: dose: 100.0 mg/kg/injection, schedule: Q01DX009 (ip), vehicle: saline.
[13] abbreviates: dose: 200.0 mg/kg/injection, schedule: Q01DX009 (ip), vehicle: saline.
The mark [14] stands for this setting: dose: 25.0 mg/kg/injection, schedule: Q01DX009 (ip), vehicle: saline.

`C/C(=N\NC(=S)N1CC(C)OC(C)C1)c1ncccn1` (stereo unspecified): the T/C was 104 % of control (dose: 7.5 mg/kg/injection, schedule: Q01DX005 (ip), vehicle: saline with Tween-80) and 98 % of control under setting [1].
For the compound `COCC#CCN(C)C`, the T/C (dose: 60.0 mg/kg/injection, schedule: Q01DX005 (ip), vehicle: saline) is 95 % of control; the T/C (dose: 120.0 mg/kg/injection, schedule: Q01DX005 (ip), vehicle: saline) is 99 % of control; the T/C (dose: 240.0 mg/kg/injection, schedule: Q01DX005 (ip), vehicle: saline) is 95 % of control.
In the case of `O=C(Nc1ccc(Cl)cc1)Nc1nnc(COc2ccc(Cl)c(Cl)c2)o1`, the T/C under setting [1] was 87 % of control and 90 % of control; the T/C (dose: 30.0 mg/kg/injection, schedule: Q01DX005 (ip), vehicle: saline with Tween-80) is 90 % of control; the T/C under setting [2] is 89 % of control and 93 % of control; the T/C under setting [3] is 98 % of control; the T/C under setting [4] is 91 % of control.
On to `N=C(N)c1ccc2[nH]c(/C=C/c3cc4cc(C(=N)N)ccc4o3)cc2c1`, for which the T/C runs as follows: (dose: 25.0 mg/kg/injection, schedule: Q04DX003 (ip), vehicle: suspension in saline) 163 % of control; (dose: 50.0 mg/kg/injection, schedule: Q04DX003 (ip), vehicle: suspension in saline) 160 % of control; (dose: 100.0 mg/kg/injection, schedule: Q04DX003 (ip), vehicle: suspension in saline) 163 % of control.
For the compound `O=C(O)CCCCOC(C[N+](=O)[O-])C(Cl)(Cl)Cl` (stereo unspecified), the T/C runs as follows: under setting [5], 100 % of control; under setting [6], 95 % of control; (dose: 200.0 mg/kg/injection, schedule: Q01DX009 (ip), vehicle: saline with Tween-80) 99 % of control.
On to `c1ccc2c(c1)ccc1c2nnc2nnnn21`, for which the T/C is 104 % of control under setting [7], 105 % of control under setting [8] and 95 % of control under setting [9].
As for `C/C(=N/NC(N)=S)c1cn[nH]c1C`, the T/C is 102 % of control (dose: 15.0 mg/kg/injection, schedule: Q01DX005 (ip), vehicle: Klucel (hydroxypropylcellulose) (HPC)); 102 % of control (dose: 30.0 mg/kg/injection, schedule: Q01DX005 (ip), vehicle: Klucel (hydroxypropylcellulose) (HPC)); 114 % of control under setting [10].
For the compound `OC1(C2CCCC2)C2C=CC1C1CCCCCCC12` (stereo unspecified), the T/C (dose: 100.0 mg/kg/injection, schedule: Q04DX002 (ip), vehicle: saline with Tween-80) was 100 % of control; the T/C (dose: 200.0 mg/kg/injection, schedule: Q04DX002 (ip), vehicle: saline with Tween-80) is 100 % of control; the T/C (dose: 400.0 mg/kg/injection, schedule: Q04DX002 (ip), vehicle: saline with Tween-80) was 97 % of control.
As to `Cc1cc[n+]([O-])cc1`, the T/C under setting [11] is 105 % of control, the T/C under setting [12] is 106 % of control and the T/C under setting [13] is 97 % of control.
`COc1cccc(C(O)c2ccncc2)c1OC` (stereo unspecified): the T/C reads like this: (dose: 25.0 mg/kg/injection, schedule: Q01DX009 (ip), vehicle: water) 90 % of control; (dose: 50.0 mg/kg/injection, schedule: Q01DX009 (ip), vehicle: water) 90 % of control; (dose: 100.0 mg/kg/injection, schedule: Q01DX009 (ip), vehicle: water) 93 % of control; (dose: 200.0 mg/kg/injection, schedule: Q01DX009 (ip), vehicle: water) 90 % of control.
For the compound `O=[N+]([O-])c1cccnc1Sc1nc2ccccc2[nH]1`, the T/C runs as follows: under setting [11], 96 % of control; under setting [12], 101 % of control; under setting [13], 101 % of control.
As for `O=C(SCN1CCCCC1)c1ccccc1`, the T/C is, setting by setting: (dose: 25.0 mg/kg/injection, schedule: Q01DX009 (ip), vehicle: saline with Tween-80) 100 % of control; under setting [5], 113 % of control; under setting [6], 109 % of control.
On to `COc1ccc2sc3c(C)ccc(NCCCC4CCCN5CCCCC45)c3c(=O)c2c1` (stereo unspecified), for which the T/C (dose: 6.25 mg/kg/injection, schedule: Q01DX005 (ip), vehicle: saline with Tween-80) is 94 % of control; the T/C (dose: 12.5 mg/kg/injection, schedule: Q01DX005 (ip), vehicle: saline with Tween-80) is 92 % of control; the T/C (dose: 25.0 mg/kg/injection, schedule: Q01DX005 (ip), vehicle: saline with Tween-80) was 89 % of control.
On to `COc1ccc(C)cc1NC(=O)SC(C)C`, for which the T/C by setting is: under setting [10], 89 % of control; (dose: 120.0 mg/kg/injection, schedule: Q01DX005 (ip), vehicle: Klucel (hydroxypropylcellulose) (HPC)) 86 % of control; (dose: 240.0 mg/kg/injection, schedule: Q01DX005 (ip), vehicle: Klucel (hydroxypropylcellulose) (HPC)) 93 % of control.
As to `O=C(O)CC(OC(=O)CP(=O)(O)O)C(=O)O` (stereo unspecified), the T/C is, setting by setting: (dose: 100.0 mg/kg/injection, schedule: Q04DX002 (ip), vehicle: saline) 105 % of control; (dose: 200.0 mg/kg/injection, schedule: Q04DX002 (ip), vehicle: saline) 93 % of control; (dose: 400.0 mg/kg/injection, schedule: Q04DX002 (ip), vehicle: saline) 102 % of control.
For `CC1CCC2(CC1=O)C(C)CC(=O)C2C(C)C` (stereo unspecified), the T/C is, setting by setting: under setting [7], 112 % of control; under setting [8], 114 % of control; (dose: 100.0 mg/kg/injection, schedule: Q04DX003 (ip), vehicle: other) 95 % of control; under setting [9], 98 % of control; (dose: 200.0 mg/kg/injection, schedule: Q04DX003 (ip), vehicle: other) 90 % of control; (dose: 400.0 mg/kg/injection, schedule: Q04DX003 (ip), vehicle: other) 100 % of control.
For the compound `CC(=O)c1c(O)cc(-c2ccccc2)oc1=O`, the T/C runs as follows: (dose: 9.5 mg/kg/injection, schedule: Q01DX005 (ip), vehicle: Klucel (hydroxypropylcellulose) (HPC)) 91 % of control; (dose: 19.0 mg/kg/injection, schedule: Q01DX005 (ip), vehicle: Klucel (hydroxypropylcellulose) (HPC)) 96 % of control; (dose: 38.0 mg/kg/injection, schedule: Q01DX005 (ip), vehicle: Klucel (hydroxypropylcellulose) (HPC)) 93 % of control; (dose: 76.0 mg/kg/injection, schedule: Q01DX005 (ip), vehicle: Klucel (hydroxypropylcellulose) (HPC)) 106 % of control.
`CCOP(=O)(CC1OCC2(CO1)COC(CP(=O)(OCC)OCC)OC2)OCC` (stereo unspecified): the T/C is, setting by setting: (dose: 12.5 mg/kg/injection, schedule: Q01DX009 (ip), vehicle: saline) 87 % of control; under setting [14], 94 % of control; under setting [11], 101 % of control and 92 % of control; under setting [12], 106 % of control; under setting [13], 100 % of control.
On to `Nn1cn[nH]c1=S`, for which the T/C is 100 % of control under setting [14], 97 % of control under setting [11], 98 % of control under setting [12] and 100 % of control under setting [13].
For the compound `O=C(Nc1ccc(Cl)c(Cl)c1)/C(Cl)=C1/Sc2ccccc2NC1=O`, the T/C under setting [2] was 105 % of control, the T/C under setting [3] is 105 % of control and the T/C under setting [4] was 105 % of control.
As to `COC(=O)c1nn(Cc2ccccc2)cc1C=O`, the T/C is, setting by setting: under setting [2], 99 % of control; under setting [3], 92 % of control; under setting [4], 92 % of control.
Regarding `CCN=C(c1ccc(NC(=O)c2ccc(C(=O)Nc3ccc(C(=NCC)N(CC)CC)cc3)cc2)cc1)N(CC)CC`, the T/C is, setting by setting: (dose: 0.39 mg/kg/injection, schedule: Q01DX005 (ip), vehicle: Klucel (hydroxypropylcellulose) (HPC)) 102 % of control; (dose: 0.78 mg/kg/injection, schedule: Q01DX005 (ip), vehicle: Klucel (hydroxypropylcellulose) (HPC)) 100 % of control; (dose: 1.56 mg/kg/injection, schedule: Q01DX005 (ip), vehicle: Klucel (hydroxypropylcellulose) (HPC)) 101 % of control.
As to `NC(=O)c1nccnc1Cl`, the T/C runs as follows: under setting [7], 101 % of control; under setting [8], 100 % of control; under setting [9], 114 % of control.
For the compound `CC/C(C)=C1\OC(=O)C(C)C(O)C(Cc2cccnc2)NC(=O)C(NC(=O)c2ncccc2O)C(C)OC1=O` (stereo unspecified), the T/C by setting is: (dose: 18.75 mg/kg/injection, schedule: Q01DX009 (ip), vehicle: saline with Tween-80) 88 % of control; (dose: 37.5 mg/kg/injection, schedule: Q01DX009 (ip), vehicle: saline with Tween-80) 86 % of control; (dose: 150.0 mg/kg/injection, schedule: Q01DX009 (ip), vehicle: saline with Tween-80) 86 % of control.
